Reference: ChEMBL document CHEMBL1201862, “PubChem BioAssay data set” (2004)
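Cells were grown in 96-well plates and exposed to each compound for 48 hours at five concentrations; endpoints were interpolated linearly between bracketing concentrations, or set to the highest concentration if not reached. The concentration for 50% growth inhibition is given as GI50.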 Calls of active or inactive are those of the source. No stated cut-off is given here; in the data, active = GI50 up to about 1.1 µM and inactive = higher.

What was measured:
Assay in all cases: NCI tumour cell line growth inhibition, 48 h
786-0 = system: 786-0
A549 = system: A549
ACHN = system: ACHN
CAKI-1 = system: CAKI-1
CCRF-CEM = system: CCRF-CEM
COLO 205 = system: COLO 205
HL-60 = system: HL-60
HOP-62 = system: HOP-62
HOP-92 = system: HOP-92
IGROV-1 = system: IGROV-1
K562 = system: K562
M14 = system: M14
MCF7 = system: MCF7
MDA-MB-435 = system: MDA-MB-435
MOLT-4 = system: MOLT-4
Malme-3M = system: Malme-3M
NCI-H23 = system: NCI-H23
NCI-H460 = system: NCI-H460
NCI/ADR-RES = system: NCI/ADR-RES
OVCAR-4 = system: OVCAR-4
RPMI-8226 = system: RPMI-8226
RXF 393 = system: RXF 393
SF-268 = system: SF-268
SK-MEL-28 = system: SK-MEL-28
SK-MEL-2 = system: SK-MEL-2
SK-MEL-5 = system: SK-MEL-5
SK-OV-3 = system: SK-OV-3
SNB-75 = system: SNB-75
SR = system: SR
SW-620 = system: SW-620
T47D = system: T47D
U-251 = system: U-251
UACC-62 = system: UACC-62
A498 = system: A498
DU-145 = system: DU-145
EKVX = system: EKVX
HCC 2998 = system: HCC 2998
HCT-116 = system: HCT-116
HCT-15 = system: HCT-15
HT-29 = system: HT-29
KM12 = system: KM12
LOX IMVI = system: LOX IMVI
MDA-MB-231 = system: MDA-MB-231
MDA-N = system: MDA-N
NCI-H226 = system: NCI-H226
NCI-H522 = system: NCI-H522
OVCAR-3 = system: OVCAR-3
OVCAR-8 = system: OVCAR-8
PC-3 = system: PC-3
SF-295 = system: SF-295
SF-539 = system: SF-539
SN12C = system: SN12C
SNB-19 = system: SNB-19
TK-10 = system: TK-10
UACC-257 = system: UACC-257
UO-31 = system: UO-31
OVCAR-5 = system: OVCAR-5
Hs-578T = system: Hs-578T

Measured: GI50

CCOC(=O)C1(C(=O)OCC)CCC(C(OC)OC)C(CC(=O)OC)C1 (centres undefined)
inactive: 786-0 > 10 µM | A549 > 10 µM | ACHN > 10 µM | CAKI-1 > 10 µM | CCRF-CEM > 10 µM | COLO 205 > 10 µM | HL-60 > 10 µM | HOP-62 > 10 µM | HOP-92 > 10 µM | IGROV-1 > 10 µM | K562 > 10 µM | M14 > 10 µM | MCF7 > 10 µM | MDA-MB-435 > 10 µM | MOLT-4 > 10 µM | Malme-3M > 10 µM | NCI-H23 > 10 µM | NCI-H460 > 10 µM | NCI/ADR-RES > 10 µM | OVCAR-4 > 10 µM | RPMI-8226 > 10 µM | RXF 393 > 10 µM | SF-268 > 10 µM | SK-MEL-28 > 10 µM | SK-MEL-2 > 10 µM | SK-MEL-5 > 10 µM | SK-OV-3 > 10 µM | SNB-75 > 10 µM | SR > 10 µM | SW-620 > 10 µM | T47D > 10 µM | U-251 > 10 µM | UACC-62 > 10 µM

CCNc1ncnc2nn[nH]c12
> 100 µM: HCT-15
inactive: 786-0 > 100 µM | A498 > 100 µM | A549 > 100 µM | ACHN > 100 µM | CAKI-1 > 100 µM | CCRF-CEM > 100 µM | COLO 205 > 100 µM | DU-145 > 100 µM | EKVX > 100 µM | HCC 2998 > 100 µM | HCT-116 > 100 µM | HL-60 > 100 µM | HOP-62 > 100 µM | HOP-92 > 100 µM | HT-29 > 100 µM | IGROV-1 > 100 µM | K562 > 100 µM | KM12 > 100 µM | LOX IMVI > 100 µM | M14 > 100 µM | MCF7 > 100 µM | MDA-MB-231 > 100 µM | MDA-MB-435 > 100 µM | MDA-N > 100 µM | MOLT-4 > 100 µM | Malme-3M > 100 µM | NCI-H226 > 100 µM | NCI-H23 > 100 µM | NCI-H522 > 100 µM | NCI/ADR-RES > 100 µM | OVCAR-3 > 100 µM | OVCAR-4 > 100 µM | OVCAR-8 > 100 µM | PC-3 > 100 µM | RPMI-8226 > 100 µM | RXF 393 > 100 µM | SF-295 > 100 µM | SF-539 > 100 µM | SK-MEL-28 > 100 µM | SK-MEL-2 > 100 µM | SK-MEL-5 > 100 µM | SK-OV-3 > 100 µM | SN12C > 100 µM | SNB-19 > 100 µM | SNB-75 > 100 µM | SW-620 > 100 µM | T47D > 100 µM | TK-10 > 100 µM | U-251 > 100 µM | UACC-257 > 100 µM | UACC-62 > 100 µM | UO-31 > 100 µM

O=C1C(Cl)=C(N2CCN(CCOCCO)CC2)C(=O)c2c(O)ccc(O)c21
active: HOP-92 0.237 µM | T47D 0.264 µM
inactive: A549 2.01 µM | DU-145 1.82 µM | HCC 2998 1.83 µM | NCI-H226 1.89 µM | NCI-H460 1.98 µM | OVCAR-5 1.87 µM | SF-539 1.75 µM | SNB-75 1.6 µM
0.227 µM: HCT-15

c1ccc2c(Nc3ccc(Oc4ccc(Nc5c6ccccc6nc6ccccc56)cc4)cc3)c3ccccc3nc2c1
active: 786-0 0.0504 µM | COLO 205 0.815 µM | DU-145 0.277 µM | HCC 2998 < 0.01 µM | HL-60 0.547 µM | LOX IMVI 0.792 µM | M14 0.0925 µM | MCF7 0.0942 µM | MDA-MB-435 0.0647 µM | NCI-H23 0.181 µM | NCI-H460 0.618 µM | NCI-H522 0.665 µM | NCI/ADR-RES 0.0655 µM | OVCAR-3 0.0659 µM | OVCAR-4 0.0668 µM | OVCAR-5 0.528 µM | OVCAR-8 0.139 µM | SK-MEL-28 0.102 µM | SNB-19 0.299 µM | SNB-75 0.436 µM | SW-620 0.0649 µM | T47D 0.556 µM
inactive: A498 1.85 µM | CAKI-1 1.63 µM | EKVX 1.5 µM | HOP-92 1.83 µM | Hs-578T 2.21 µM | Malme-3M 1.73 µM | NCI-H226 1.72 µM | PC-3 1.6 µM | RXF 393 2.4 µM | SF-268 1.57 µM | SF-295 1.67 µM | SK-MEL-2 1.96 µM | SK-MEL-5 1.57 µM | SK-OV-3 1.72 µM | TK-10 1.19 µM
